≈ marks a conversion by molar mass, not a printed value. Where a SMILES comes first, the peptide text is derived from it. [ ]: non-standard residue; d: D form.
Experiments:
A. baumannii [1] = assay: MIC of antimicrobial peptide during combined treatment with antibiotic; assay type: cell-based, Acinetobacter baumannii
Method in brief: (§1)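 Strains in MH medium at 2×10^6 CFU/ml were mixed with peptide diluted stepwise (2:1) from its MIC, then antibiotic dilutions in MH medium were added to give the antibiotic MIC. The reversed set-up, peptide titrated against fixed antibiotic, gave the peptide MIC.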

MDRAB 12035 [2] = assay: MIC of antibiotic during combined treatment with antimicrobial peptide; assay type: cell-based, Acinetobacter baumannii
Method in brief: as §1

MDRST 8007 = assay: Minimal inhibitory concentration (MIC), single agent; assay type: cell-based, Salmonella typhimurium; settings: agent alone
Method in brief: (§2)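 Broth microdilution in MH medium: strains diluted to 2×10^6 CFU were mixed with equal volumes of twofold serial peptide dilutions in MH medium. MIC was taken as the lowest peptide concentration preventing bacterial growth.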

S. epidermidis = assay: microbe, parasite or virus in culture; assay type: cell-based, Staphylococcus epidermidis
Method in brief: as §2

MDRAB 12035 [3] = assay: microbe, parasite or virus in culture; assay type: cell-based, Acinetobacter baumannii; settings: MDRAB 12035
Method in brief: as §2

A. baumannii [4] = assay: microbe, parasite or virus in culture; assay type: cell-based, Acinetobacter baumannii
Method in brief: as §2

A. baumannii [5] = assay: MIC of antibiotic during combined treatment with antimicrobial peptide; assay type: cell-based, Acinetobacter baumannii; settings: A. baumannii
Method in brief: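 Checkerboard-type MIC of peptide–antibiotic mixtures in MH medium: the antibiotic was serially diluted in MH medium and added to wells, then the reversed arrangement was also tested.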

[6] = peptide treatment concentration 1 μg/ml
[7] = peptide treatment concentration 2 μg/ml
[8] = peptide treatment concentration 4 μg/ml
[9] = peptide treatment concentration 6 μg/ml
[10] = peptide treatment concentration 8 μg/ml
[11] = peptide treatment concentration 16 μg/ml
[12] = peptide treatment concentration 32 μg/ml
[13] = peptide treatment concentration 64 μg/ml
[14] = combined with peptide at 1 μg/ml
[15] = combined with peptide at 2 μg/ml
[16] = combined with peptide at 4 μg/ml
[17] = combined with peptide at 6 μg/ml
[18] = combined with peptide at 8 μg/ml
[19] = combined with peptide at 16 μg/ml
[20] = combined with peptide at 32 μg/ml
[21] = combined with peptide at 64 μg/ml

CC[C@H](C)[C@H](NC(=O)[C@H](CCCCN)NC(=O)[C@H](Cc1c[nH]c2ccccc12)NC(=O)[C@@H](N)CCCNC(=N)N)C(=O)N[C@@H](Cc1ccccc1)C(=O)N[C@@H](CCCCN)C(=O)N[C@@H](CCCCN)C(=O)N[C@H](C(=O)N[C@H](CC(C)C)C(=O)N[C@@H](CCCCN)C(=O)N[C@@H](CC(C)C)C(=O)N[C@@H](CC(C)C)C(=O)N[C@@H](Cc1c[nH]cn1)C(=O)N[C@@H](CCCCN)C(=O)N[C@@H](Cc1ccccc1)C(=O)N[C@@H](CCCCN)C(=O)N[C@@H](CCCCN)C(=O)N[C@@H](Cc1ccccc1)C(N)=O)[C@@H](C)CC [PapMA-21, RWK IFK KIl KLL HKF KKF-NH2] (H-RWKIFKKI[dL]KLLHKFKKF-NH2; N-terminus assumed)
Peptide MIC during treatment with erythromycin (A. baumannii [1]; erythromycin 16 μg/ml (Conc./MIC 1/2)): 2 µg/mL | Peptide MIC during treatment with erythromycin (A. baumannii [1]; erythromycin 32 μg/ml (Conc./MIC 1)): 0 µg/mL | Peptide MIC during treatment with linezolid (A. baumannii [1]; linezolid 32 μg/ml (Conc./MIC 1/8)): 4 µg/mL | Peptide MIC during treatment with linezolid (A. baumannii [1]; linezolid 64 μg/ml (Conc./MIC 1/4)): 4 µg/mL | Peptide MIC during treatment with linezolid (A. baumannii [1]; linezolid […] (Conc./MIC 1)): 0 µg/mL | Peptide MIC during treatment with linezolid (A. baumannii [1]; linezolid […] (Conc./MIC 1/2)): 1 µg/mL | Peptide MIC during treatment with vancomycin (A. baumannii [1]; vancomycin 512 μg/ml (Conc./MIC 1/2)): 0.25 µg/mL | Peptide MIC during treatment with vancomycin (A. baumannii [1]; vancomycin 1024 μg/ml (Conc./MIC 1)): 0 µg/mL | Peptide MIC during treatment with vancomycin (A. baumannii [1]; vancomycin […] (Conc./MIC 1/4)): 0.5 µg/mL | Peptide MIC during treatment with vancomycin (A. baumannii [1]; vancomycin […] (Conc./MIC 1/8)): 4 µg/mL | Erythromycin MIC during combined treatment with peptide (MDRAB 12035 [2]; [6]): 32 µg/mL | Linezolid MIC during combined treatment with peptide (MDRAB 12035 [2]; [6]): >128 µg/mL | Vancomycin MIC during combined treatment with peptide (MDRAB 12035 [2]; [6]): >128 µg/mL | Erythromycin MIC during combined treatment with peptide (MDRAB 12035 [2]; [7]): 32 µg/mL | Linezolid MIC during combined treatment with peptide (MDRAB 12035 [2]; [7]): >128 µg/mL | Vancomycin MIC during combined treatment with peptide (MDRAB 12035 [2]; [7]): >128 µg/mL | Erythromycin MIC during combined treatment with peptide (MDRAB 12035 [2]; [8]): 16 µg/mL | Linezolid MIC during combined treatment with peptide (MDRAB 12035 [2]; [8]): 64 µg/mL | Vancomycin MIC during combined treatment with peptide (MDRAB 12035 [2]; [8]): 128 µg/mL | Erythromycin MIC during combined treatment with peptide (MDRAB 12035 [2]; [9]): 4 µg/mL | Linezolid MIC during combined treatment with peptide (MDRAB 12035 [2]; [9]): 32 µg/mL | Vancomycin MIC during combined treatment with peptide (MDRAB 12035 [2]; [9]): 64 µg/mL | Erythromycin MIC during combined treatment with peptide (MDRAB 12035 [2]; [10]): 1 µg/mL | Linezolid MIC during combined treatment with peptide (MDRAB 12035 [2]; [10]): 16 µg/mL | Vancomycin MIC during combined treatment with peptide (MDRAB 12035 [2]; [10]): 32 µg/mL | Erythromycin MIC during combined treatment with peptide (MDRAB 12035 [2]; [11]): 0.5 µg/mL | Linezolid MIC during combined treatment with peptide (MDRAB 12035 [2]; [11]): 8 µg/mL | Vancomycin MIC during combined treatment with peptide (MDRAB 12035 [2]; [11]): 16 µg/mL | Erythromycin MIC during combined treatment with peptide (MDRAB 12035 [2]; [12]): 0 µg/mL | Linezolid MIC during combined treatment with peptide (MDRAB 12035 [2]; [12]): 0 µg/mL | Vancomycin MIC during combined treatment with peptide (MDRAB 12035 [2]; [12]): 0 µg/mL | Erythromycin MIC during combined treatment with peptide (MDRAB 12035 [2]; [13]): 0 µg/mL | Linezolid MIC during combined treatment with peptide (MDRAB 12035 [2]; [13]): 0 µg/mL | Vancomycin MIC during combined treatment with peptide (MDRAB 12035 [2]; [13]): 0 µg/mL | Minimal inhibitory concentration MIC (MDRST 8007): 64 µg/mL (≈ 26.7 µM) | Minimal inhibitory concentration MIC (S. epidermidis): >128 µg/mL | Minimal inhibitory concentration MIC (MDRAB 12035 [3]; agent alone): 32 µg/mL (≈ 13.3 µM) | Peptide MIC, peptide alone (MDRAB 12035 [3]; no antibiotic): 32 µg/mL | Minimal inhibitory concentration MIC (A. baumannii [4]): 32 µg/mL (≈ 13.3 µM) | Peptide MIC, peptide alone (A. baumannii [4]): 32 µg/mL | Antibacterial activity relative to PapMA-1 (A. baumannii [4]; A. baumannii and S. typhimurium): at least twice as high | Antibiotic MIC, Erythromycin (A. baumannii [5]; [14]): 32 µg/mL | Antibiotic MIC, Linezolid (A. baumannii [5]; [14]): >128 µg/mL | Antibiotic MIC, Vancomycin (A. baumannii [5]; [14]): >128 µg/mL | Antibiotic MIC, Erythromycin (A. baumannii [5]; [15]): 32 µg/mL | Antibiotic MIC, Linezolid (A. baumannii [5]; [15]): >128 µg/mL | Antibiotic MIC, Vancomycin (A. baumannii [5]; [15]): >128 µg/mL | Antibiotic MIC, Erythromycin (A. baumannii [5]; [16]): 8 µg/mL | Antibiotic MIC, Linezolid (A. baumannii [5]; [16]): 32 µg/mL | Antibiotic MIC, Vancomycin (A. baumannii [5]; [16]): 64 µg/mL | Antibiotic MIC, Erythromycin (A. baumannii [5]; [17]): 2 µg/mL | Antibiotic MIC, Linezolid (A. baumannii [5]; [17]): 16 µg/mL | Antibiotic MIC, Vancomycin (A. baumannii [5]; [17]): 32 µg/mL | Antibiotic MIC, Erythromycin (A. baumannii [5]; [18]): 1 µg/mL | Antibiotic MIC, Linezolid (A. baumannii [5]; [18]): 16 µg/mL | Antibiotic MIC, Vancomycin (A. baumannii [5]; [18]): 16 µg/mL | Antibiotic MIC, Erythromycin (A. baumannii [5]; [19]): 0.25 µg/mL | Antibiotic MIC, Linezolid (A. baumannii [5]; [19]): 2 µg/mL | Antibiotic MIC, Vancomycin (A. baumannii [5]; [19]): 8 µg/mL | Antibiotic MIC, Erythromycin (A. baumannii [5]; [20]): 0 µg/mL | Antibiotic MIC, Linezolid (A. baumannii [5]; [20]): 0 µg/mL | Antibiotic MIC, Vancomycin (A. baumannii [5]; [20]): 0 µg/mL | Antibiotic MIC, Erythromycin (A. baumannii [5]; [21]): 0 µg/mL | Antibiotic MIC, Linezolid (A. baumannii [5]; [21]): 0 µg/mL | Antibiotic MIC, Vancomycin (A. baumannii [5]; [21]): 0 µg/mL

From patent US11214594B2, “Antimicrobial peptide having synergistic antibacterial effect with antibiotics on multidrug resistant bacteria, and use thereof” (priority 2016, dated 2022)
